According to patent US5407918A, “16-membered macrolide derivatives and process for producing the same” (Meiji Seika Kaisha, Ltd., priority 1992, dated 1995):
≈ marks a conversion by molar mass, not a printed value. Read-outs that look alike come from different tables or passages of the source.

Columns and labels:
[1] = test system: S. aureus MS15026; assay: MIC, agar plate dilution method; type: cell-based; conditions: Staphylococcus aureus, 37° C., 20 hours, read-out: Antimicrobial activity (MIC)
Method: (§1) Antimicrobial activities of the compounds of the present invention were determined by measuring minimum inhibitory concentration (MIC). Minimum inhibitory concentration was determined by the agar plate dilution method in the following manner.
(§2) Test strains were subjected to seed culture using Sensitivity test broth (STB, Nissui Pharmaceutical) except that the strains belonging to the genus Streptococcus, Branhamella and Haemophilus were cultured on blood agar plate. A 5 μl portion of cell suspension of the test strains having about 10^6 CFU/ml was inoculated into Sensitivity disk agar (SDA, Nissui Pharmaceutical) supplemented with 5% horse blood and incubated at 37° C. for 20 hours. Then, MIC was measured. For comparison, MDM and leucomycin A7 (LM-A7) was also tested.

[2] = test system: E. faecalis W-73; assay: MIC, agar plate dilution method; type: cell-based; conditions: Enterococcus faecalis, read-out: Antimicrobial activity (MIC)
Method: as §1, §2

[3] = test system: M. luteus ATCC9341; assay: MIC, agar plate dilution method; type: cell-based; conditions: Micrococcus luteus, read-out: Antimicrobial activity (MIC)
Method: as §1, §2

[4] = test system: S. epidermidis ATCC14990; assay: MIC, agar plate dilution method; type: cell-based; conditions: Staphylococcus epidermidis, 37° C., 20 hours, read-out: Antimicrobial activity (MIC)
Method: as §1, §2

[5] = test system: S. aureus 209P JC-1; assay: MIC, agar plate dilution method; type: cell-based; conditions: Staphylococcus aureus; S. aureus 209P JC-1; 37° C., 20 hours; read-out: Antimicrobial activity (MIC)
Method: as §1, §2

[6] = test system: H. influenzae 9334; assay: MIC, agar plate dilution method; type: cell-based; conditions: read-out: Antimicrobial activity (MIC)
Method: as §1, §2

[7] = test system: S. aureus MS15009/pMS99; assay: MIC, agar plate dilution method; type: cell-based; conditions: Staphylococcus aureus, MS15009/PMS99, 20 h, read-out: Antimicrobial activity (MIC)
Method: as §1, §2

[8] = test system: B. catarrhalis W-0506; assay: MIC, agar plate dilution method; type: cell-based; conditions: Moraxella catarrhalis, W0506, 37° C., 20 hours, read-out: Antimicrobial activity (MIC)
Method: as §1, §2

[9] = test system: S. aureus MS15009/pMS98; assay: MIC, agar plate dilution method; type: cell-based; conditions: Staphylococcus aureus, MS15009/PMS98, 20 h, read-out: Antimicrobial activity (MIC)
Method: as §1, §2

[10] = test system: K. pneumoniae PC1602; assay: MIC, agar plate dilution method; type: cell-based; conditions: Klebsiella pneumoniae, 37° C., 20 hours, read-out: Antimicrobial activity (MIC)
Method: as §1, §2

[11] = test system: B. catarrhalis W-0500; assay: MIC, agar plate dilution method; type: cell-based; conditions: Moraxella catarrhalis, W0500, 37° C., 20 hours, read-out: Antimicrobial activity (MIC)
Method: as §1, §2

[12] = test system: S. Pyogenes Cook; assay: MIC, agar plate dilution method; type: cell-based; conditions: Streptococcus pyogenes, 37° C., 20 hours, read-out: Antimicrobial activity (MIC)
Method: as §1, §2

[13] = test system: E. coli NIHJ JC-2; assay: MIC, agar plate dilution method; type: cell-based; conditions: Escherichia coli, read-out: Antimicrobial activity (MIC)
Method: as §1, §2

[14] = test system: S. aureus MS15027; assay: MIC, agar plate dilution method; type: cell-based; conditions: Staphylococcus aureus, 37° C., 20 hours, read-out: Antimicrobial activity (MIC)
Method: as §1, §2

[15] = test system: S. aureus M126; assay: MIC, agar plate dilution method; type: cell-based; conditions: Staphylococcus aureus; S. aureus M126; 37° C., 20 hours; read-out: Antimicrobial activity (MIC)
Method: as §1, §2

[16] = test system: S. pneumoniae IP692; assay: MIC, agar plate dilution method; type: cell-based; conditions: Streptococcus pneumoniae, read-out: Antimicrobial activity (MIC)
Method: as §1, §2

[17] = test system: S. Pneumoniae Type 1; assay: MIC, agar plate dilution method; type: cell-based; conditions: Streptococcus pneumoniae, read-out: Antimicrobial activity (MIC)
Method: as §1, §2

[18] = test system: H. influenzae Type b; assay: MIC, agar plate dilution method; type: cell-based; conditions: Haemophilus influenzae; H. influenzae Type b; 37° C., 20 hours; read-out: Antimicrobial activity (MIC)
Method: as §1, §2

[19] = test system: S. aureus M133; assay: MIC, agar plate dilution method; type: cell-based; conditions: Staphylococcus aureus, 37° C., 20 hours, read-out: Antimicrobial activity (MIC)
Method: as §1, §2

[20] = concentration in serum after oral administration to mice, bioassay; type: in vivo, mice (Jcl:ICR)
Method: The compound (3) was mixed with a 0.2% solution of carboxymethylcellulose to give a concentration of 4 mg/ml and a 1 ml portion of the resulting emulsion was orally administered to 4-week-old male Jcl:ICR mice. Blood was collected from armpit of the mice 30, 60, 120, 240 and 360 minutes after the administration of the test compound (n=2). The collected blood was allowed to stand at room temperature for about 2 hours and centrifuged for 20 minutes with a centrifuge (KUBOTA KS-5000P) to obtain serum. To the serum was added an equivalent volume of 50% CH3 CN-50 mM phosphate (1:1 by volume) buffer (pH 7.0). The resulting mixture served as a serum sample. The concentration of the test compound in the serum sample was measured by the following bioassay method.
One hundred […] of the serum sample was poured into a hole made on a test plate containing 40 ml of MRAPJ medium (6 g/l peptone, 3 g/l yeast extract, 1.5 g/l meat extract, 1 g/l glucose and 15 g/l agar, pH 6.5) supplemented with a solution of M. Iuteus ATCC9341 (1%) and incubated at 32° C. for 18 hours and MIC was measured based on the calibration curve. MOM, MDM and RKM were also tested for comparison. […] Thus a long-pending problem of "low concentration in serum" of 16-membered macrolide antibiotics has been solved. […] Thus this compound is considered as a macrolide derivative showing new pharmacokinetics.
Further, a pharmacokinetics test on the compound (12) of the present invention is carried out in the same manner as described above. Namely, 200 mg/kg of the compound (12) is orally administered to mice and the concentration of this compound in the serum is determined by a bioassay method with the use of M. luteus as a test strain. […] The disadvantage of 16-membered ring macrolide antibiotics, which has been pointed out for a long time, has been thus overcome.

[21] = test system: Gram-positive bacteria; assay: antimicrobial activity in vitro (summary in words); type: cell-based; conditions: from Tables 2 and 3
Method: as §1, §2

[22] = test system: test strains; assay: antimicrobial activity in vitro, comparison in words; type: cell-based
Method: as §1, §2

[23] = test system: M. luteus
Method: Each test compound and 50 μl of a methanol solution (10,000 γ) were added to 950 μl of thawed rat plasma and the resulting mixture was incubated at 37° C. for 24 hours. After completion of the incubation, a 20 μl portion of the mixture was added to 980 μl of 0.05M phosphate buffer (pH 7.6). A 20 μl portion of the sample solution was used to measure antimicrobial activity against M. luteus.

[24] = test system: M. pneumoniae Numata; assay: MIC, agar plate dilution method; type: cell-based; conditions: Mycoplasmoides pneumoniae, 20 h, read-out: Antimicrobial activity (MIC)
Method: as §1, §2

[25] = test system: M. pneumoniae FH; assay: MIC, agar plate dilution method; type: cell-based; conditions: Mycoplasmoides pneumoniae, 20 h, read-out: Antimicrobial activity (MIC)
Method: as §1, §2

[26] = test system: M. pneumoniae FH-P24; assay: MIC, agar plate dilution method; type: cell-based; conditions: Mycoplasmoides pneumoniae, FHP24, 20 h, read-out: Antimicrobial activity (MIC)
Method: as §1, §2

[27] = test system: M. pneumoniae Mac; assay: MIC, agar plate dilution method; type: cell-based; conditions: Mycoplasmoides pneumoniae, 20 h, read-out: Antimicrobial activity (MIC)
Method: as §1, §2

[28] = metabolism in plasma; type: in vitro ADME, rat; conditions: no free hydroxyl group in the neutral sugar moiety formed
Method: Each test compound and 50 μl of a methanol solution (10,000 γ) were added to 950 μl of thawed rat plasma and the resulting mixture was incubated at 37° C. for 24 hours. After completion of the incubation, a 20 μl portion of the mixture was added to 980 μl of 0.05M phosphate buffer (pH 7.6). A 20 μl portion of the sample solution was used to measure antimicrobial activity against M. luteus. Separately, the calibration curve was prepared by using a methanol solution containing each test compound. The starting activity of each compound in the plasma was referred to as 100%.

[29] = test system: Gram-positive bacteria and Mycoplasma; assay: antimicrobial activity in vitro (summary in words); type: cell-based; conditions: from Table 1
Method: as §1, §2

[30] = W73, E. faecalis W-73, 37° C., 20 hours
[31] = M. luteus ATCC9341, 37° C., 20 hours
[32] = Haemophilus influenzae, H. influenzae 9334, 37° C., 20 hours
[33] = NIHJJC2, E. coli NIHJ JC-2, 37° C., 20 hours
[34] = S. pneumoniae IP692, 37° C., 20 hours
[35] = S. Pneumoniae Type 1, 37° C., 20 hours

SMILES	MIC [1] [µg/mL]	MIC [2, 30] [µg/mL]	MIC [3, 31] [µg/mL]	MIC [4] [µg/mL]	MIC [5] [µg/mL]	MIC [6, 32] [µg/mL]	MIC [7] [µg/mL]	MIC [8] [µg/mL]	MIC [9] [µg/mL]	MIC [10] [µg/mL]	MIC [11] [µg/mL]	MIC [12] [µg/mL]	MIC [13, 33] [µg/mL]	MIC [14] [µg/mL]	MIC [15] [µg/mL]	MIC [16, 34] [µg/mL]	MIC [17, 35] [µg/mL]	MIC [19] [µg/mL]	degree of loss of the antimicrobial activity in the plasma compared with MOM [23]	duration of antimicrobial activity in rat plasma [23]	also measured
CO[C@@H]1[C@@H](O[C@@H]2O[C@H](C)[C@@H](O[C@H]3C[C@@](C)(OC)[C@@H](OCCC(C)C)[C@H](C)O3)[C@H](N(C)C)[C@H]2O)[C@@H](CC=O)C[C@@H](C)[C@@H](O)/C=C/C=C/C[C@@H](C)OC(=O)C[C@H]1O [(12)]	> 100	0.39 (≈ 0.496 µM)	0.05 (≈ 0.0636 µM)	0.39 (≈ 0.496 µM)	0.1 (≈ 0.127 µM)	1.56 (≈ 1.98 µM)	> 100	0.39 (≈ 0.496 µM)	0.2 (≈ 0.254 µM)	> 100	0.39 (≈ 0.496 µM)	0.05 (≈ 0.0636 µM)	> 100	0.39 (≈ 0.496 µM)	> 100	0.1 (≈ 0.127 µM)	0.1 (≈ 0.127 µM)	0.39 (≈ 0.496 µM)	–	–	MIC [18]: 6.25 µg/mL (≈ 7.95 µM); Cmax ([20]; mouse, serum, 200 mg/kg, M. luteus bioassay, read-out: maximum concentration in the serum): 11500 ng/mL; maximum concentration in the serum, comparison in words ([20]; versus clarythromycin (CAM) or other 16-membered macrolides): comparable to that of CAM; antimicrobial activity on Gram-positive bacteria [21]: strong antimicrobial activity; antimicrobial activity in vitro compared with MOM ([22]; data are not shown): clearly much superior to MOM; antimicrobial activity compared with LM-A7 ([22]; except on Haemophilus influenzae, Tables 2 and 3): comparable or superior
CCCCO[C@H]1[C@H](C)O[C@@H](O[C@H]2[C@H](N(C)C)[C@@H](O)[C@H](O[C@H]3[C@@H](CC=O)C[C@@H](C)[C@@H](O)/C=C/C=C/C[C@@H](C)OC(=O)C[C@@H](OC(=O)CC)[C@@H]3OC)O[C@@H]2C)C[C@@]1(C)OC [(2)]	> 100	–	0.05 (≈ 0.0604 µM)	1.56 (≈ 1.88 µM)	0.39 (≈ 0.471 µM)	–	> 100	1.56 (≈ 1.88 µM)	0.39 (≈ 0.471 µM)	> 100	1.56 (≈ 1.88 µM)	0.2 (≈ 0.242 µM)	–	0.78 (≈ 0.942 µM)	> 100	0.05 (≈ 0.0604 µM)	–	0.78 (≈ 0.942 µM)	lower than that of MOM	extremely long-acting in rat plasma	MIC [24]: 0.05 µg/mL (≈ 0.0604 µM); MIC ([2]; W73, 20 h): 3.13 µg/mL (≈ 3.78 µM); MIC [25]: 1.56 µg/mL (≈ 1.88 µM); MIC ([6]; Haemophilus influenzae, 9334, 20 h): 6.25 µg/mL (≈ 7.55 µM); MIC ([13]; NIHJJC2, 20 h): > 100 µg/mL; MIC [26]: 0.1 µg/mL (≈ 0.121 µM); MIC [27]: 0.1 µg/mL (≈ 0.121 µM); MIC ([17]; 20 h): 0.2 µg/mL (≈ 0.242 µM); extent of metabolism [28]: hardly metabolized; antimicrobial activities compared with MDM [29]: comparable to, or even exceeding, that of MDM; antimicrobial activities on Gram-positive bacteria and Mycoplasma [29]: strong antimicrobial activities
CCCCCCO[C@H]1[C@H](C)O[C@@H](O[C@H]2[C@H](N(C)C)[C@@H](O)[C@H](O[C@H]3[C@@H](CC=O)C[C@@H](C)[C@@H](O)/C=C/C=C/C[C@@H](C)OC(=O)C[C@@H](OC(=O)CC)[C@@H]3OC)O[C@@H]2C)C[C@@]1(C)OC [(5)]	> 100	3.13 (≈ 3.66 µM)	–	1.56 (≈ 1.82 µM)	0.39 (≈ 0.456 µM)	6.25 (≈ 7.3 µM)	> 100	1.56 (≈ 1.82 µM)	0.78 (≈ 0.911 µM)	> 100	1.56 (≈ 1.82 µM)	0.2 (≈ 0.234 µM)	> 100	1.56 (≈ 1.82 µM)	> 100	–	0.2 (≈ 0.234 µM)	1.56 (≈ 1.82 µM)	lower than that of MOM	extremely long-acting in rat plasma	MIC [24]: 0.05 µg/mL (≈ 0.0584 µM); MIC [25]: 1.56 µg/mL (≈ 1.82 µM); MIC ([3]; ATCC9341, 20 h): 0.1 µg/mL (≈ 0.117 µM); MIC [26]: 0.2 µg/mL (≈ 0.234 µM); MIC [27]: 0.2 µg/mL (≈ 0.234 µM); MIC ([16]; IP692, 20 h): 0.2 µg/mL (≈ 0.234 µM); extent of metabolism [28]: hardly metabolized; antimicrobial activities on Gram-positive bacteria and Mycoplasma [29]: strong antimicrobial activities
